Reference: ChEMBL document CHEMBL1201862, “PubChem BioAssay data set” (2004)
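Exposure lasted 48 hours, with cells grown in 96-well plates and compounds tested at five concentrations. GI50: concentration for 50% inhibition of growth.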 Active and inactive are the calls of the source. Rule as the data show it: active = GI50 up to about 1.1 µM and inactive = higher.

How the values were obtained:
Experiment in all cases: DTP human tumour cell line panel, 48 h
[1] = tested on: A498
[2] = tested on: Hs-578T
[3] = tested on: NCI-H23
[4] = tested on: UO-31
[5] = tested on: HOP-62
[6] = tested on: ACHN
[7] = tested on: UACC-62
[8] = tested on: HT-29
[9] = tested on: EKVX
[10] = tested on: SNB-75
[11] = tested on: MDA-MB-435
[12] = tested on: TK-10
[13] = tested on: M14
[14] = tested on: COLO 205
[15] = tested on: SK-OV-3
[16] = tested on: A549
[17] = tested on: OVCAR-5
[18] = tested on: SF-295
[19] = tested on: PC-3
[20] = tested on: NCI-H522

Measured: GI50

COc1cc(COC(=O)NC(Cc2cccs2)C(=O)O)c([N+](=O)[O-])cc1OC (configuration not stated)
inactive: [1] 39.3 µM | [2] > 100 µM | [3] > 100 µM | [4] > 100 µM | [5] > 100 µM | [6] > 100 µM | [7] > 100 µM | [8] > 100 µM | [9] > 100 µM | [10] 59.2 µM | [11] > 100 µM | [12] > 100 µM | [13] > 100 µM | [14] > 100 µM | [15] > 100 µM | [16] > 100 µM | [17] > 100 µM | [18] > 100 µM | [19] > 100 µM

CCNC1=C(NC(=O)c2ccc(OC)cc2)C(=O)c2ccccc2C1=O
inactive: [2] > 100 µM | [3] 43.6 µM | [5] > 100 µM | [6] 88.3 µM | [7] 39.4 µM | [8] 23.4 µM | [9] > 100 µM | [10] > 100 µM | [11] 16.8 µM | [12] > 100 µM | [13] 21.6 µM | [14] 37 µM | [15] > 100 µM | [16] 70.3 µM | [17] > 100 µM | [18] > 100 µM | [19] 32.8 µM | [20] 30.7 µM

O=C(NC(=S)Nc1ccc2c(c1)Sc1ccccc1O2)c1ccc([N+](=O)[O-])cc1
inactive: [2] > 100 µM | [3] > 100 µM | [4] > 100 µM | [5] > 100 µM | [6] > 100 µM | [7] > 100 µM | [8] > 100 µM | [9] > 100 µM | [10] > 100 µM | [11] > 100 µM | [12] > 100 µM | [13] > 100 µM | [14] > 100 µM | [15] > 100 µM | [16] > 100 µM | [17] > 100 µM | [18] > 100 µM | [19] > 100 µM | [20] > 100 µM

c1ccc2c3c(ccc2c1)CSCc1ccc2ccccc2c1-3
inactive: [1] > 100 µM | [2] > 100 µM | [3] > 100 µM | [4] > 100 µM | [5] > 100 µM | [6] > 100 µM | [7] > 100 µM | [8] > 100 µM | [9] > 100 µM | [10] > 100 µM | [11] > 100 µM | [12] > 100 µM | [13] > 100 µM | [14] > 100 µM | [16] > 100 µM | [17] > 100 µM | [18] > 100 µM | [19] > 100 µM | [20] > 100 µM

CN1CCc2c(sc3nc(S)nc(S)c23)C1
inactive: [2] > 100 µM | [3] > 100 µM | [5] > 100 µM | [6] > 100 µM | [7] > 100 µM | [8] > 100 µM | [9] > 100 µM | [10] > 100 µM | [11] > 100 µM | [12] > 100 µM | [13] > 100 µM | [14] > 100 µM | [15] > 100 µM | [16] > 100 µM | [17] > 100 µM | [18] > 100 µM | [19] > 100 µM | [20] > 100 µM

CS(C)(=O)=N/C=C\C(=O)C(Cl)(Cl)Cl
inactive: [2] > 100 µM | [3] > 100 µM | [4] > 100 µM | [5] 99.1 µM | [6] > 100 µM | [7] 92.3 µM | [8] > 100 µM | [9] > 100 µM | [10] > 100 µM | [11] > 100 µM | [12] > 100 µM | [13] > 100 µM | [14] > 100 µM | [15] > 100 µM | [16] > 100 µM | [17] > 100 µM | [18] > 100 µM | [19] 54 µM | [20] 36.1 µM

CCOC(=O)c1ncn(CCc2ccc(Cl)cc2)c1C
inactive: [1] > 100 µM | [2] > 100 µM | [3] > 100 µM | [4] 34.5 µM | [5] > 100 µM | [6] > 100 µM | [7] 42.4 µM | [8] > 100 µM | [9] > 100 µM | [11] > 100 µM | [12] > 100 µM | [13] 26.3 µM | [14] > 100 µM | [16] > 100 µM | [17] > 100 µM | [18] 70.8 µM | [19] > 100 µM | [20] 34.4 µM

COc1ccc(OCc2ccc3nc(-c4ccccc4)c(Cl)nc3c2)cc1
inactive: [1] 26.4 µM | [2] 23.4 µM | [3] 19 µM | [4] 62.8 µM | [5] 14.2 µM | [6] 27.9 µM | [7] > 10 µM | [8] 76.7 µM | [9] 50.5 µM | [10] 36 µM | [11] 50.6 µM | [12] 17.7 µM | [13] 33.9 µM | [14] 16.6 µM | [16] 40 µM | [17] 32.1 µM | [18] 21.7 µM | [19] 40.9 µM | [20] 10.7 µM

O=CC1C(Cl)=Nc2nc3ccccc3n2C1c1ccc([N+](=O)[O-])cc1 (configuration not stated)
inactive: [1] 24.7 µM | [2] 57.7 µM | [3] 7.96 µM | [4] 3.88 µM | [5] 8.28 µM | [6] 2.43 µM | [7] 16.3 µM | [9] 24.1 µM | [10] 1.77 µM | [11] 4.81 µM | [12] 4.54 µM | [13] 7.93 µM | [14] 3.14 µM | [16] 25.2 µM | [17] 21.1 µM | [18] 23.2 µM | [19] 4.89 µM | [20] 3.71 µM

O=C(C#Cc1cn(C2CC(O)C(CO)O2)c(=O)[nH]c1=O)c1ccccc1 (configuration not stated)
inactive: [2] 79.3 µM | [3] > 100 µM | [4] > 100 µM | [5] > 100 µM | [6] 83.4 µM | [7] > 100 µM | [8] > 100 µM | [9] > 100 µM | [10] > 100 µM | [11] 58.9 µM | [12] > 100 µM | [13] 28.5 µM | [14] 28.6 µM | [15] > 100 µM | [16] > 100 µM | [18] > 100 µM | [19] > 100 µM | [20] 5.6 µM

CCCC1=NC(C(F)(F)F)(C(F)(F)F)N=C(N2CCOCC2)O1
inactive: [2] > 100 µM | [3] > 100 µM | [4] > 100 µM | [5] > 100 µM | [7] > 100 µM | [8] > 100 µM | [9] > 100 µM | [10] > 100 µM | [11] > 100 µM | [12] > 100 µM | [13] > 100 µM | [14] > 100 µM | [15] > 100 µM | [16] > 100 µM | [17] > 100 µM | [18] > 100 µM | [19] > 100 µM

Cn1c(-c2cccc(N)c2)[n+](C)c2ccccc21
inactive: [1] 22.4 µM | [2] 64.6 µM | [3] 48.3 µM | [4] > 100 µM | [5] > 100 µM | [6] > 100 µM | [7] > 100 µM | [8] > 100 µM | [9] > 100 µM | [10] > 100 µM | [11] > 100 µM | [12] > 100 µM | [13] > 100 µM | [14] 38.7 µM | [15] > 100 µM | [16] 40.9 µM | [17] > 100 µM | [18] > 100 µM | [19] > 100 µM

OC(c1ccoc1)c1cc2ccccc2s1 (configuration not stated)
inactive: [2] > 10 µM | [3] > 10 µM | [4] > 10 µM | [5] > 10 µM | [6] > 10 µM | [7] > 10 µM | [8] > 10 µM | [9] > 10 µM | [10] > 10 µM | [11] > 10 µM | [12] > 10 µM | [13] > 10 µM | [14] > 10 µM | [15] > 10 µM | [16] > 10 µM | [17] > 10 µM | [18] > 10 µM | [19] > 10 µM | [20] > 10 µM

Oc1cnnc2nc3ccccc3n12
inactive: [1] > 100 µM | [2] > 100 µM | [3] > 100 µM | [4] > 100 µM | [5] > 100 µM | [6] > 100 µM | [8] > 100 µM | [9] 34.8 µM | [10] > 100 µM | [11] > 100 µM | [12] > 100 µM | [13] > 100 µM | [14] > 100 µM | [16] > 100 µM | [17] > 100 µM | [18] > 100 µM | [19] > 100 µM | [20] > 100 µM

COc1cc(OC)c2c(c1)OC(c1ccccc1)CC2=O (configuration not stated) [DIMETHYLPINOCEMBRIN]
inactive: [2] > 10 µM | [3] > 10 µM | [4] > 10 µM | [5] > 10 µM | [6] > 10 µM | [7] > 10 µM | [8] > 10 µM | [9] > 10 µM | [10] > 10 µM | [11] > 10 µM | [12] > 10 µM | [13] > 10 µM | [14] > 10 µM | [15] > 10 µM | [16] > 10 µM | [17] > 10 µM | [18] > 10 µM | [19] > 10 µM | [20] > 10 µM
